7 compounds from patent publication US11890279B2, “Quinolines that modulate SERCA and their use for treating disease” (Neurodon Corporation, priority 2020, dated 2024) can be followed below.

In data set [1] the test system is HEK293 cells. Kind of data set: Protection against thapsigargin (TG)-induced cell death, HEK293. It is filed as cell-based, human. Conditions: compound 20 μM; thapsigargin 15 μM; 24 hrs. On the procedure:
(§1) Protection against Thapsigargin (TG)-induced Cell-death. Human embryonic kidney (HEK293) cells were grown in Dulbecco's Modified Eagle's Medium (DMEM) with 10% FBS and 1% antibiotic antimycotic solution (ABAM). Mouse neuroblastoma (N2a) cells were grown in 1:1 DMEM:OPTI-MEM® with 5% FBS and 1% ABAM. All cells were grown in 10% CO2 in a humidified environment of the incubator. Cells grown in 96-well plates were exposed to a test compound (20 μM) for 2 hrs before addition of thapsigargin (15 μM for HEK293 cells and 1 μM for N2a cells) to induce ER stress. After incubation in cell-culture incubator for 24 hrs, ALAMARBLUE® regent (10% v/v) was added to the wells. Fluorescence reading was taken 2 hrs after the addition of the ALAMARBLUE® regent. Cell-viability was calculated as a percentage of relative fluorescence unit (RFU) compared to control.
(§2) The results are summarized in Table 2, where A represents a value greater than 50% cell rescue, B represents a value between 10% to 50% cell rescue, C represents a value between 1% to 10% cell rescue, and D represents a value no greater than 1% cell rescue.

The test system of data set [2] is SERCA (SR vesicles). Kind of data set: Activation of SERCA, increase in Vmax. It is filed as biochemical.
Data set [3] relates to N2a cells. Kind of data set: Protection against hydrogen peroxide-induced cell death, N2a. Conditions: compound 40 μM; hydrogen peroxide 200 μM. It is filed as cell-based, mouse. On the procedure:
Protection against Hydrogen Peroxide-induced Cell-death. N2a cells grown in 96-well plates were exposed to a test compound (40 μM) for 2 hrs before addition of hydrogen peroxide (200 μM). After 40 min of incubation with hydrogen peroxide, ALAMARBLUE® regent (10% v/v) was added to the wells. Fluorescence reading was taken 2 hrs after the addition of the ALAMARBLUE® regent. Cell-viability was calculated as a percentage of relative fluorescence unit (RFU) compared to control.
as §2

The test system of data set [4] is N2a cells. Put plainly: Protection against thapsigargin (TG)-induced cell death, N2a. Conditions: compound 20 μM; thapsigargin 1 μM; 24 hrs. It is filed as cell-based, mouse. As for the experimental part:
as §1, §2

The nature of data set [5]: Pharmacokinetics in CD-1 mice. It is filed as in vivo, mouse. Conditions: CD-1 mice. On the procedure: Pharmacokinetics of test compounds were assessed in CD-1 mice. The compounds were formulated at 1 mg/mL in DMSO/Tween 80/water (10/10/80, vol/vol/vol) and dosed at 2 mg/kg intravenous (i.v.) or 10 mg/kg by oral gavage (P.O.) in triplicate. Blood was drawn at 0.25 h, 0.5 h, 1 hr, 2 hrs, 4 hrs, 8 hrs, and 24 hrs into EDTA containing tubes and plasma was harvested by centrifugation. Plasma (10 μL) containing 50% acetonitrile in water (5 μL) was added to 200 μL of ACN containing an internal standard. The samples were vortexed for 30 s. After centrifugation at […] and 4,000 rpm for 15 min, the supernatant was diluted 3 times with water. Then, 20 μL of diluted supernatant was injected into the LC/MS/MS system for quantitative analysis. The samples were injected onto an Agilent ZORBAX XDB-Phenyl 5μ column (50×2.10 mm). Mobile Phase A was water with 0.1% formic acid. Mobile Phase B was acetonitrile with 0.1% formic acid. Separation was achieved using a gradient of 70% A/30% B to 0% A/100% B over 2.10 min. A Shimadzu LCMS-8050 equipped with a turbo ion spray source was used for all analytical measurements. A positive ion MRM method was developed. Peak areas of the product ion were measured against the peak areas of the internal standard. Data was fit using WinNonLin (Pharsight Corporation, Mountain View, CA).

The subject of data set [6] is CSM14.1 cells. Put plainly: ER stress cell survival assay (thapsigargin).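 Also: survival read as CellTiter-Glo luminescence after overnight incubation.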 Conditions: compound 2 μM; about 15 μM thapsigargin; CSM14.1 cells. It is filed as cell-based. As for the experimental part:
ER Stress Cell Survival Assay
CSM14.1 cells were maintained in Complete Medium at 32° C.; wherein the Complete Medium contained Dulbecco's modified eagle medium (DMEM) with 10% fetal bovine serum (FSB), 1% L-glutamine, 100 IU/mL penicillin, and 100 μg/mL streptomycin. The cells were recovered from cultures by trypsinization and then seeded in 384 well plates (Greiner #781098) at a concentration of 1,000 cells/well in 20 μL of DMEM Assay Medium, wherein the DMEM Assay Medium contained 2% FBS, 100 IU/mL penicillin, and 100 μg/mL streptomycin. Seeding was performed using a MultiDrop Combi reagent broadcaster. The plates were incubated overnight at 32° C.
A test compound was prepared by 2-fold serial dilution in 100% DMSO using a BIOMEK® 2000 liquid handler (Beckman Coulter). A dose-response curve containing 10 concentrations of the test compound was obtained. Using a BIOMEK® FX liquid handler (Beckman Coulter), 2.5 μL of the test compound was transferred from the 100% DMSO serial dilution plate to an intermediate plate containing 47.5 μL of DMEM Assay Medium containing 2% FBS, 100 IU/mL penicillin, and 100 μg/mL streptomycin and mixed. To reduce or eliminate the interference from the compound's precipitation, 6 μL of the diluted compound was immediately transferred to the assay plate to achieve a high compound concentration of 100 μM in 99% DMEM Assay Medium and 1% DMSO. After the assay plates were incubated for 2 hrs, 4 μL of 112.5 μM thapsigargin (TG) (DMSO stock diluted into Assay TC Medium) was dispensed into each testing well with a MultiDrop Combi reagent broadcaster for a final concentration of about 15 μM TG. The tissue culture media (4 μL) containing vehicle only was transferred manually to each control cell using a 16 channel electronic pipette. […] High luminescence indicates cell survival.
Alternatively, a test compound was tested at a single compound concentration (e.g., 2 μM) to determine the effect of the compound on cell survival in comparison with vehicle.

Where [7] appears, read: mouse, plasma, 2 mg/kg i.v. or 10 mg/kg P.O.

For `COc1ccc(C(=O)Nc2cccc3ccc(C)nc23)cc1` [Compound A8, 4-Methoxy-N-(2-methylquinolin-8-yl)benzamide], the “HEK293 Cells (TG-induced) cell rescue” value in data set [1] is “A (A represents a value greater than 50% cell rescue)”. In data set [2], the “Increase in Vmax at 10 μM” value was “C′ (C′ represents an increase no greater than 20%)”. The “N2a Cells (H2O2-induced) cell rescue” value in data set [3] is “B (B represents a value between 10% to 50% cell rescue)”. The “N2a Cells (TG-induced) cell rescue” value in data set [4] is recorded as “B (B represents a value between 10% to 50% cell rescue)”.
Regarding `COc1ccccc1C(=O)Nc1cccc2ccc(C)nc12` [Compound A9, 2-Methoxy-N-(2-methylquinolin-8-yl)benzamide], the “HEK293 Cells (TG-induced) cell rescue” value in data set [1] is on record as “A (A represents a value greater than 50% cell rescue)”. For the same compound, the “N2a Cells (H2O2-induced) cell rescue” value in data set [3] is reported as “B (B represents a value between 10% to 50% cell rescue)”. In data set [4], the “N2a Cells (TG-induced) cell rescue” value is recorded as “A (A represents a value greater than 50% cell rescue)”.
Regarding `Cc1ccc2cccc(NC(=O)c3ccc(Br)s3)c2n1` [Compound B1, 5-Bromo-N-(2-methylquinolin-8-yl)thiophene-2-carboxamide], the “Increase in Vmax at 10 μM” value in data set [2] was “B′ (B′ represents an increase between 20 to 50%)”. Further, the “N2a Cells (H2O2-induced) cell rescue” value in data set [3] is recorded as “A (A represents a value greater than 50% cell rescue)”. Also, the F in data set [5] (10 mg/kg P.O. vs 2 mg/kg i.v.) stood at 2.9%. In data set [5] (setting [7]), the AUC (commonly concentration integrated over time) came out at 21 ng·h/mL; the Cmax (in general, the highest concentration seen after dosing) stood at 80 nM; the half-life – broadly, the time needed for the level to fall by half in the phase considered – was 42 min. The “N2a Cells (TG-induced) cell rescue” value in data set [4] is listed as “B (B represents a value between 10% to 50% cell rescue)”.
Consider `N#Cc1cccc(C(=O)Nc2cccc3cccnc23)c1` [Compound B3, 3-Cyano-N-(quinolin-8-yl)benzamide], for which the “HEK293 Cells (TG-induced) cell rescue” value in data set [1] was “A (A represents a value greater than 50% cell rescue)”. The “Increase in Vmax at 10 μM” value in data set [2] is on record as “C′ (C′ represents an increase no greater than 20%)”. Moreover, in data set [3], the “N2a Cells (H2O2-induced) cell rescue” value is given as “B (B represents a value between 10% to 50% cell rescue)”. Besides, in data set [4], the “N2a Cells (TG-induced) cell rescue” value is recorded as “B (B represents a value between 10% to 50% cell rescue)”.
For the compound `Cc1ccc2cccc(NC(=O)c3ccc(C#N)cc3)c2n1` [Compound B4, 4-Cyano-N-(2-methylquinolin-8-yl)benzamide], in data set [1], the “HEK293 Cells (TG-induced) cell rescue” value is listed as “A (A represents a value greater than 50% cell rescue)”. In addition, in data set [3], the “N2a Cells (H2O2-induced) cell rescue” value is reported as “B (B represents a value between 10% to 50% cell rescue)”. Also, the “N2a Cells (TG-induced) cell rescue” value in data set [4] is “B (B represents a value between 10% to 50% cell rescue)”.
On to `Cc1ccc2cccc(NC(=O)c3ccccc3C(F)(F)F)c2n1` [Compound C5, 2-Trifluoromethyl-N-(2-methylquinolin-8-yl)benzamide], for which the “Cell Survival” value in data set [6] is “B (B represents a value between 10% and 50%)”. Moreover, the “HEK293 Cells (TG-induced) cell rescue” value in data set [1] is recorded as “A (A represents a value greater than 50% cell rescue)”. Further, the “Increase in Vmax at 10 μM” value in data set [2] is given as “B′ (B′ represents an increase between 20 to 50%)”. The “N2a Cells (H2O2-induced) cell rescue” value in data set [3] was “B (B represents a value between 10% to 50% cell rescue)”. Besides, the “N2a Cells (TG-induced) cell rescue” value in data set [4] is reported as “A (A represents a value greater than 50% cell rescue)”.
For the compound `Cc1ccc2cccc(NC(=O)c3ccc(C(F)(F)F)cc3)c2n1` [Compound C10, 4-Trifluoromethyl-N-(2-methylquinolin-8-yl)benzamide], the “Cell Survival” value in data set [6] is reported as “D (D represents a value no greater than 1%)”. In addition, in data set [1], the “HEK293 Cells (TG-induced) cell rescue” value was “A (A represents a value greater than 50% cell rescue)”. Further, in data set [3], the “N2a Cells (H2O2-induced) cell rescue” value is “B (B represents a value between 10% to 50% cell rescue)”. In data set [4], the “N2a Cells (TG-induced) cell rescue” value is given as “B (B represents a value between 10% to 50% cell rescue)”.
